{
  "source": "paper PMC7357171",
  "about": "(Toxicological Sciences, 2020)",
  "key": {"MCF7": {"system": "MCF7", "experiment": "High-throughput transcriptomics"}, "[1]": {"system": "LPS-stimulated PBMC and endothelial cell coculture system", "experiment": "BioMap Diversity 8 Panel, LPS system", "format": "cell-based, human", "conditions": "up to 500 µM"}, "HepaRG 3D [2]": {"system": "HepaRG 3D", "experiment": "High-throughput transcriptomics", "format": "cell-based, human"}, "[3]": {"experiment": "Human cryopreserved hepatocyte stability assay", "format": "in vitro ADME", "conditions": "cryopreserved hepatocytes"}, "MAO-B": {"system": "MAO-B", "conditions": "ref Gnerre et al., 2000; cited from earlier work"}, "[4]": {"experiment": "Determination of the margin of safety", "conditions": "for Preliminary MoS (range): PoDs of the in vitro bioactivity characterization step"}, "CYP2A6": {"target": "T1, CYP2A6 (Homo sapiens, UniProt P11509)", "T1 sequence (P11509 1-494)": "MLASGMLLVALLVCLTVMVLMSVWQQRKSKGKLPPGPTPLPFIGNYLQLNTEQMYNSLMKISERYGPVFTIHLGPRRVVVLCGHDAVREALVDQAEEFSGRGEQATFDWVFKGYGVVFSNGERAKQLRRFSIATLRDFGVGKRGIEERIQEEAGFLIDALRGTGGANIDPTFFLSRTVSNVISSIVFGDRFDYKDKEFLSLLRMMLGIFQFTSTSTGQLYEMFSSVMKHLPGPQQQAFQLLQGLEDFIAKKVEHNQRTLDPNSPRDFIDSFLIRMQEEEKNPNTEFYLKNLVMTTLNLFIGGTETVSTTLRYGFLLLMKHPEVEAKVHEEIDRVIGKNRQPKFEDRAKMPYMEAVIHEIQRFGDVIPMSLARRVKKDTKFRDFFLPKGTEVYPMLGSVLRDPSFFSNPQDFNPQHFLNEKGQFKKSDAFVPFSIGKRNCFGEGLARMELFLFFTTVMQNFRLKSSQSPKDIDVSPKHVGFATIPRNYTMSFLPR", "experiment": "Compound stability in expressed human CYP2A6", "conditions": "heterologously expressed (recombinant) CYP2A6"}, "HepaRG 3D [5]": {"system": "HepaRG 3D", "experiment": "In vitro cell stress panel in HepaRG 3D spheroids", "format": "cell-based, human"}, "[6]": {"system": "SAg-stimulated PBMC and endothelial cell coculture system", "experiment": "BioMap Diversity 8 Panel, SAg system", "format": "cell-based, human", "conditions": "up to 500 µM"}, "[7]": {"target": "carbonic anhydrase type I", "conditions": "read-out: Ki used as PoD for the MoS calculation; ref PubChem; cited from earlier work"}, "[8]": {"system": "8 cell-based human primary cell cultures (or cocultures)", "conditions": "ref ToxCast, CompTox Chemicals Dashboard; cited from earlier work"}, "[9]": {"conditions": "assessment factor of 100 on the animal NOAEL; ref EFSA, 2008; cited from earlier work"}, "MAO-A [10]": {"target": "T2, MAO-A (Rattus norvegicus, UniProt P21396)", "T2 sequence (P21396 1-526)": "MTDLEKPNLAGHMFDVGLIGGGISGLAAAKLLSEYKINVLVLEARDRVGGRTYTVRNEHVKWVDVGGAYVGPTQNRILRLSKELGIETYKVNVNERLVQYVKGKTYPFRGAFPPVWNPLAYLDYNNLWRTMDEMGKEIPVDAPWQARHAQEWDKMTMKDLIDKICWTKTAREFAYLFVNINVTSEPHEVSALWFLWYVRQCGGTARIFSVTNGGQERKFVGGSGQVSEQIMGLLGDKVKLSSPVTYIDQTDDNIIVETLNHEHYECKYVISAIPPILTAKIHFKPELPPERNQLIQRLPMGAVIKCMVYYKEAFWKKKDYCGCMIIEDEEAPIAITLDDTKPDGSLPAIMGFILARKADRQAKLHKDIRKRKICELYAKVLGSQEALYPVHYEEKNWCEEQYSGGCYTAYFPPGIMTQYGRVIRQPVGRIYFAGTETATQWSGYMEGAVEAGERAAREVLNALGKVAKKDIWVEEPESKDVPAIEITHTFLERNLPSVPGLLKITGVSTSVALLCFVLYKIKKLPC", "experiment": "SafetyScreen44 MAO-A", "format": "binding", "conditions": "coumarin 10 µM"}, "MAO-A [11]": {"target": "T2, MAO-A", "conditions": "ref Gnerre et al., 2000; cited from earlier work"}, "mES reporter cell lines": {"system": "mES reporter cell lines", "experiment": "ToxTracker genotoxicity assay", "format": "cell-based"}, "HepaRG 2D": {"system": "HepaRG 2D", "experiment": "High-throughput transcriptomics"}, "[12]": {"target": "carbonic anhydrase type IV", "conditions": "read-out: Ki used as PoD for the MoS calculation; ref PubChem; cited from earlier work"}},
  "note": "pIC50, pKi: −log10 of the molar value. Marks after values point to notes of the source that are not given here.",
  "data": [
    {"molecule": "O=c1ccc2ccccc2o1", "note": "[Coumarin]", "values": [
      {"measurement": "PoDT, Mean BMD of genes between 25th and 75th percentile", "setting": "MCF7; MCF7, 24 h", "value": 1, "unit": "µM"},
      {"measurement": "cytotoxicity (> 20%)", "setting": "MCF7; MCF7, up to the maximum tested concentration, data not shown", "value": "No significant cytotoxicity"},
      {"measurement": "biomarkers affected", "setting": "[1]", "value": "No biomarkers were affected"},
      {"measurement": "summarized PoDs after 24 h exposure (range)", "setting": "HepaRG 3D [2]", "value": "41 to 55", "unit": "µM"},
      {"measurement": "PoDT, BMD of Reactome pathway with lowest BMD that meets significance threshold criteria", "setting": "HepaRG 3D [2]; 24 h", "value": 41, "unit": "µM"},
      {"measurement": "number of genes in gene-level tests", "setting": "HepaRG 3D [2]; 24 h", "value": "(9 genes)"},
      {"measurement": "PoDT, Mean BMD of genes between 25th and 75th percentile", "setting": "HepaRG 3D [2]; 24 h, fewer than 20 genes (*)", "value": "46* µM"},
      {"measurement": "PoDT, 20 pathways with the lowest BMD Reactome", "setting": "HepaRG 3D [2]; 24 h, fewer than 20 pathways (*)", "value": "46* µM"},
      {"measurement": "number of genes in gene-level tests", "setting": "HepaRG 3D [2]; 24 h, listed as coumarin", "value": 9, "unit": "genes"},
      {"measurement": "number of pathways in pathway-level tests", "setting": "HepaRG 3D [2]; 24 h, listed as coumarin", "value": 2, "unit": "pathways"},
      {"measurement": "half-life", "setting": "[3]", "value": 13, "unit": "min"},
      {"measurement": "pIC50", "setting": "MAO-B", "value": 4.39},
      {"measurement": "PoDT, 20 pathways with the lowest BMD Reactome", "setting": "HepG2; HepG2, 24 h", "value": 44, "unit": "µM"},
      {"measurement": "PoDT, BMD of Reactome pathway with lowest BMD that meets significance threshold criteria", "setting": "HepG2; HepG2, 24 h", "value": 31, "unit": "µM"},
      {"measurement": "PoDT, Mean BMD of genes between 25th and 75th percentile", "setting": "HepG2; HepG2, 24 h", "value": 17, "unit": "µM"},
      {"measurement": "number of genes in gene-level tests", "setting": "HepG2; HepG2, 24 h", "value": "(1570 genes)"},
      {"measurement": "number of pathways in pathway-level tests", "setting": "HepG2; HepG2, 24 h", "value": "(308 pathways)"},
      {"measurement": "cytotoxicity (> 20%)", "setting": "HepG2; HepG2, up to the maximum tested concentration, data not shown", "value": "No significant cytotoxicity"},
      {"measurement": "Body Lotion Min. 5th percentile MoS", "setting": "[4]; PubChem, Carbonic Anhydrase Type I", "value": 158},
      {"measurement": "Preliminary MoS (range)", "setting": "[4]; body lotion", "value": "158-22048"},
      {"measurement": "MoS (the 5th percentile), all PoDs", "setting": "[4]; face cream and body lotion", "value": "higher than 100"},
      {"measurement": "Preliminary MoS (range)", "setting": "[4]; face cream", "value": "706-96738"},
      {"measurement": "half-life at 1 µM", "setting": "CYP2A6", "value": "< 5", "unit": "min"},
      {"measurement": "biomarker changes at 24 h", "setting": "HepaRG 3D [5]", "value": "no changes"},
      {"measurement": "biomarkers affected", "setting": "[6]", "value": "No biomarkers were affected"},
      {"measurement": "pKi", "setting": "[7]", "value": 5.52},
      {"measurement": "concentration-response in BioMap data generated during the ToxCast program", "setting": "[8]", "value": "No concentration-response"},
      {"measurement": "tolerable daily intake (TDI) for coumarin in foods", "setting": "[9]", "value": "0 to 0.1", "unit": "mg/kg/day"},
      {"measurement": "Mean % inhibition, Specific binding", "setting": "MAO-A [10]", "value": 22, "unit": "%"},
      {"measurement": "pIC50", "setting": "MAO-A [11]", "value": 4.92},
      {"measurement": "Blvrb-GFP oxidative stress marker", "setting": "mES reporter cell lines; presence of S9, 24 h", "value": "activated"},
      {"measurement": "Btg2-GFP reporter (p53 response) activation", "setting": "mES reporter cell lines; presence of S9, 24 h", "value": "weak activation"},
      {"measurement": "Srxn1-GFP oxidative stress marker", "setting": "mES reporter cell lines; presence of S9, 24 h", "value": "activated"},
      {"measurement": "cytotoxicity", "setting": "mES reporter cell lines; up to 1000 µM, absence or presence of S9", "value": "No significant cytotoxicity"},
      {"measurement": "Srxn1-GFP oxidative stress reporter", "setting": "mES reporter cell lines; without metabolic activation, 24 h", "value": "induced"},
      {"measurement": "cytotoxicity (> 20%)", "setting": "HepaRG 2D; 2D HepaRG, up to the maximum tested concentration, data not shown", "value": "No significant cytotoxicity"},
      {"measurement": "PoDT, Mean BMD of genes between 25th and 75th percentile", "setting": "HepaRG 2D; HepaRG 2D, 24 h", "value": 59, "unit": "µM"},
      {"measurement": "number of pathways in pathway-level tests", "setting": "HepaRG 2D; HepaRG 2D, 24 h", "value": 17, "unit": "pathways"},
      {"measurement": "pKi", "setting": "[12]", "value": 4.21}
    ]}
  ]
}
